From US4036957A, “Phenoxy compounds in combinations to suppress gastric bleeding in aspirin therapy” (priority 1975, dated 1977)
Read-outs that look alike come from different tables or passages of the source.

Key:
[1] = tested on: aspirin-induced gastric bleeding; type: in vivo, cats; settings: cat
Experimental: Fasted cats weighing […] were anesthetized with phenobarbital sodium (130 mg/kg, i.p.). Glyceryl guaiacolate was administered intravenously for a total of 2 hrs. beginning 60 min. prior to the topical application of the aspirin (10 mg) to the gastric mucosa. Throughout the experiment, artificial gastric juice (USP, pH 1.3) bathed the mucosa by means of the specially designed chamber. The number of bleeding sites occurring at various exposure sites were recorded at 15, 30 and 60 min. Glyceryl guaiacolate was given at doses of 10 and 30 mg/kg/hr via a previously cannulated jugular vein using an infusion pump (Harvard Apparatus Co., Model 1202). […] An important point is that with 30 mg/kg/hr, i.v., of glyercyl guaiacolate there was no bleeding at 30 min. compared with an average of 14 bleeding sites when no glyceryl guaiacolate was adminsitered. A total of 23 cats were used and there was a minimum of 24 aspirin exposure sites for each dose of glyceryl guaiacolate.

[2] = tested on: aspirin-induced gastric bleeding; assay: Prevention of aspirin-induced gastric bleeding in pyloric-ligated rats, i.p. test compound (Examples 1-22); type: in vivo, Female Sprague-Dawley rats; settings: rat; for change in vivo at 50 mg/kg: 50 mg/kg i.p.
Experimental: The prevention of aspirin-induced bleeding in rats was determined by the following procedure. Female Sprague-Dawley rats weighing 150-180 g. were fasted for 24 hours on wire and divided into groups of six animals each. The rats were anesthetized and a ligature placed at the pyloric-duodenal junction. Groups serving as controls received normal saline (4.0 ml/kg, i.p.). […] Some of the compounds were tested at 50 mg/kg, i.p. The rats were sacrificed 60 min. after aspirin administration by cervical dislocation. The volume of the gastric contents was determined and compared against that produced with the same amount of aspirin for change in volume. […] (Gradation between 0 to 40 is on an even scale).

aspirin-induced bleeding = settings: rat; for Gastric Bleeding Index / Percent Decrease In Mucosal Hemorrhage vs. Control / Total Hemoglobin Loss / Volume Gastric Secretion: aspirin ca 375 p.o.
Experimental: The effect of glyceryl guaiacolate (Compound 8) on aspirin-induced bleeding in rats was studied using the following procedure. Female Sprague-Dawley rats, weighing 140-160 g. and fasted for 24 hrs. on wire were divided into groups of 10 animals each. All animals were anesthetized with Metofane® and a ligature placed at the pyloric-duodenal junction. Groups serving as controls received normal saline (4.0 ml/kg, i.p.). Some groups received normal saline and in addition were given aspirin (375 mg/kg, p.o.) in artificial gastric juice; the remaining groups received aspirin in the same amount and also glyceryl guaiacolate 30 min. prior to the aspirin. The aspirin was administered in artificial gastric juice (USP, […]) in a total volume of 2 ml. to each rat. Following a recovery period of 1 hr. the animals received saline, aspirin and glyceryl guaiacolate in the amounts and by the routes indicated. In most of the experiments, 90 min. following aspirin the rats were sacrificed by cervical dislocation. The stomachs were removed and gastric contents collected for further analysis. […] Hemoglobin loss produced by the aspirin was determined by the colorimetric method of Bing and Baker (J. Biol. Chem. 92: 589, 1931). The condition of the gastric mucosa was also assessed by determining the incidence and severity of damage using the scoring system described hereinabove to obtain the "Gastric Bleeding Index".
Following the procedure of Example 26, methocarbamol (Compound 3 ) was tested further in rats via intraperitoneal and intraduodenal administration.

[3] = tested on: Carrageenan pleural effusion; assay: Evans Blue-Carrageenan Pleural Effusion Test; type: in vivo, rats; settings: rat, metaxalone 100 mg/kg 30 min before aspirin 150 mg/kg p.o. and again 2 hrs after Carrageenan
Description: The effect of metaxalone (Compound 15) on the anti-inflammatory activity of aspirin in rats was studied using a modification of the Evans Blue-Carrageenan Pleural Effusion Test [Sancilio, L. F., Journal of Pharmacology and Experimental Therapeutics 168, 199-204 (1969)].

[4] = tested on: aspirin-induced gastric bleeding; assay: Aspirin-induced gastric bleeding in Cr51 labeled Heidenhain pouch dogs, oral; type: in vivo; settings: dog; for Mucosal Blood Loss, HCl + Aspirin / Mucosal Blood Loss, HCl: ± S.E.; for Mucosal Blood Loss, HCl: without aspirin; for % Change from Control (mucosal blood loss): P >0.05
Experimental: Methocarbamol (Compound 3) and Metaxalone (Compound 15) were evaluated for their effectiveness upon oral administration against aspirin-induced gastric bleeding in dogs. Three female chronic Heindehain pouch dogs were used. Red blood cells from each dog were labeled with Cr^51. The dogs were fasted 24 hours prior to any study and three days elapsed between studies. On experimental days each fundic pouch was rinsed with tepid tap water and then filled with 10 ml. of normal saline. After 30 minutes the saline was replaced with 10 ml. of artificial gastric juice (USP, pH 1.3). The dogs were given Compound 3 (200 mg/kg) or Compound 15 (50 and 100 mg/kg) or placebo (starch) orally in gelatin capsules. The 10 ml. of gastric juice was removed from the pouch after 60 minutes and replaced with another 10 ml. of juice containing 100 mg. of aspirin (80 mesh). This was likewise removed after 60 minutes. All samples collected from the pouches were counted for radio-activity using a deep-well counter. From the amount of radio-activity present in the gastric samples, the loss of blood into the pouch was determined. The results are shown in Table 3 and show the effectiveness of orally administering Compounds 3 and 15 in preventing aspirin-induced gastric bleeding.

[5] = ip, 1 h, aspirin 375 mg/kg p.o., read-out: Percent Decrease in Mucosal Bleeding vs Control
[6] = ip, 1 h, 100 mg/kg i.p., aspirin 375 mg/kg p.o., read-out: Percent Decrease in Mucosal Bleeding vs Control
[7] = score 0 to 40, 100 mg/kg i.p. (column head states no dose), aspirin 375 mg/kg p.o.
[8] = 50 mg/kg i.p., Series 2, ± S.E.
[9] = 50 mg/kg oral, Series 3, ± S.E.
[10] = 100 mg/kg i.p., Series 1, ± S.E., P <0.05
[11] = 100 mg/kg i.p., Series 1, P <0.05
[12] = 100 mg/kg intraduodenal, ± S.E., P <0.05
[13] = 100 mg/kg intraduodenal, P <0.05
[14] = 100 mg/kg oral, Series 3, ± S.E.
[15] = 200 mg/kg i.p., Series 2, ± S.E., P <0.05
[16] = 200 mg/kg i.p., Series 2, P <0.05
[17] = 200 mg/kg intraduodenal, ± S.E., P <0.05
[18] = 200 mg/kg intraduodenal, P <0.05
[19] = 200 mg/kg oral, Series 3, ± S.E.

COc1ccccc1OCC(O)CO (centres unmarked) [Compound 8, 3-(2-methoxyphenoxy)-1,2-propanediol]
bleeding at 30 min ([1]; 30 mg/kg/hr i.v., aspirin 10 mg topical): no bleeding
gastric bleeding produced by aspirin with increasing doses ([1]; 10 and 30 mg/kg/hr i.v.): correspondingly reduced
change in vivo at 50 mg/kg [2, 5]: -57%
change in vivo at 100 mg/kg [2, 6]: -40%
Gastric Bleeding Index [2, 7]: 26.1
effect on pH (gastric) (aspirin-induced bleeding): a similar effect on pH was not observed
volume of gastric secretion (in words) (aspirin-induced bleeding): significant reduction
Gastric Bleeding Index (aspirin-induced bleeding; 50 mg/kg i.p., Series 2): 26.0 ± 2.6
Percent Decrease In Mucosal Hemorrhage vs. Control (aspirin-induced bleeding; 50 mg/kg i.p., Series 2): 13.3%
Total Hemoglobin Loss (aspirin-induced bleeding; [8]): 26.7 ± 3.1 mg
Volume Gastric Secretion (aspirin-induced bleeding; [8]): 6.4 ± 0.4 mL
Gastric Bleeding Index (aspirin-induced bleeding; 50 mg/kg intraduodenal): 18.0 ± 4.1
Percent Decrease In Mucosal Hemorrhage vs. Control (aspirin-induced bleeding; 50 mg/kg intraduodenal): 10.0%
Total Hemoglobin Loss (aspirin-induced bleeding; 50 mg/kg intraduodenal, ± S.E.): 12.4 ± 2.3 mg
Volume Gastric Secretion (aspirin-induced bleeding; 50 mg/kg intraduodenal, ± S.E.): 5.0 ± 0.2 mL
Gastric Bleeding Index (aspirin-induced bleeding; 50 mg/kg oral, Series 3): 30.5 ± 2.4
Percent Decrease In Mucosal Hemorrhage vs. Control (aspirin-induced bleeding; 50 mg/kg oral, Series 3): 14.2%
Total Hemoglobin Loss (aspirin-induced bleeding; [9]): 29.4 ± 3.2 mg
Volume Gastric Secretion (aspirin-induced bleeding; [9]): 8.0 ± 0.3 mL
Total Hemoglobin Loss (aspirin-induced bleeding; [10]): 8.2 ± 2.5 mg
Volume Gastric Secretion (aspirin-induced bleeding; [10]): 4.2 ± 0.4 mL
Gastric Bleeding Index (aspirin-induced bleeding; [11]): 6.5 ± 4.7
Percent Decrease In Mucosal Hemorrhage vs. Control (aspirin-induced bleeding; [11]): 77%
Total Hemoglobin Loss (aspirin-induced bleeding; [12]): 7.7 ± 1.2 mg
Volume Gastric Secretion (aspirin-induced bleeding; [12]): 3.9 ± 0.2 mL
Gastric Bleeding Index (aspirin-induced bleeding; [13]): 9.5 ± 2.5
Percent Decrease In Mucosal Hemorrhage vs. Control (aspirin-induced bleeding; [13]): 57.5%
Gastric Bleeding Index (aspirin-induced bleeding; 100 mg/kg oral, Series 3): 21.0 ± 2.7
Percent Decrease In Mucosal Hemorrhage vs. Control (aspirin-induced bleeding; 100 mg/kg oral, Series 3): 41.5%
Total Hemoglobin Loss (aspirin-induced bleeding; [14]): 26.2 ± 4.6 mg
Volume Gastric Secretion (aspirin-induced bleeding; [14]): 6.5 ± 0.3 mL
Total Hemoglobin Loss (aspirin-induced bleeding; [15]): 14.5 ± 3.9 mg
Volume Gastric Secretion (aspirin-induced bleeding; [15]): 4.1 ± 0.4 mL
Gastric Bleeding Index (aspirin-induced bleeding; [16]): 6.0 ± 2.1
Percent Decrease In Mucosal Hemorrhage vs. Control (aspirin-induced bleeding; [16]): 80.0%
Total Hemoglobin Loss (aspirin-induced bleeding; [17]): 4.4 ± 1.0 mg
Volume Gastric Secretion (aspirin-induced bleeding; [17]): 3.5 ± 0.3 mL
Gastric Bleeding Index (aspirin-induced bleeding; [18]): 2.0 ± 1.1
Percent Decrease In Mucosal Hemorrhage vs. Control (aspirin-induced bleeding; [18]): 90.0%
Percent Decrease In Mucosal Hemorrhage vs. Control (aspirin-induced bleeding; 200 mg/kg oral, Series 3): 46.5%
Total Hemoglobin Loss (aspirin-induced bleeding; [19]): 20.2 ± 1.5 mg
Volume Gastric Secretion (aspirin-induced bleeding; [19]): 6.5 ± 0.5 mL
Gastric Bleeding Index (aspirin-induced bleeding; 200 mg/kg oral, Series 3, P <0.05): 19.0 ± 3.9
loss of blood into the gastric contents (aspirin-induced bleeding; 100 and 200 mg/kg): markedly reduced
aspirin-induced gastric irritation (aspirin-induced bleeding; 100 and 200 mg/kg by any route): markedly reduced

Cc1cc(C)cc(OCC2CNC(=O)O2)c1 (centres unmarked) [Compound 15, 5-(3,5-dimethylphenoxymethyl)-2-oxazolidinone]
effect on the anti-inflammatory effectiveness of aspirin [3]: no effect
change in vivo at 50 mg/kg [2, 5]: -98%
change in vivo at 100 mg/kg [2, 6]: -96%
ED50 ([2]; ip): 19.6 mg/kg
change in vivo at 100 mg/kg ([2]; ip, 100 mg/kg i.p. (column head states no dose), aspirin 375 mg/kg p.o., read-out: Vol. % Decrease in Gastric Secretion): -41.4%
Gastric Bleeding Index ([2]; 12.5 mg/kg i.p.): 27.5 ± 4.2
Total Hemoglobin Loss ([2]; 12.5 mg/kg i.p.): 19.3 ± 3.4 mg
Vol. Gastric Secretion ([2]; 12.5 mg/kg i.p.): 6.3 ± 0.3 mL
Percent Decrease in Mucosal Hemorrhage vs Control ([2]; 12.5 mg/kg i.p., P >.05): 21%
Gastric Bleeding Index ([2]; 25.0 mg/kg i.p.): 15.0 ± 5.0
Total Hemoglobin Loss ([2]; 25.0 mg/kg i.p.): 15.3 ± 6.3 mg
Vol. Gastric Secretion ([2]; 25.0 mg/kg i.p.): 5.1 ± 0.3 mL
Percent Decrease in Mucosal Hemorrhage vs Control ([2]; 25.0 mg/kg i.p., P <.025): 57%
Gastric Bleeding Index ([2]; 50.0 mg/kg i.p.): 0.8 ± 0.8
Total Hemoglobin Loss ([2]; 50.0 mg/kg i.p.): 2.5 ± 1.1 mg
Vol. Gastric Secretion ([2]; 50.0 mg/kg i.p.): 3.6 ± 0.5 mL
Percent Decrease in Mucosal Hemorrhage vs Control ([2]; 50.0 mg/kg i.p., P <.001): 98%
Gastric Bleeding Index ([2]; 100.0 mg/kg i.p.): 3.3 ± 1.7
Total Hemoglobin Loss ([2]; 100.0 mg/kg i.p.): 2.5 ± 1.4 mg
Vol. Gastric Secretion ([2]; 100.0 mg/kg i.p.): 3.8 ± 0.4 mL
Percent Decrease in Mucosal Hemorrhage vs Control ([2]; 100.0 mg/kg i.p., P <.001): 91%
preventing aspirin-induced gastric bleeding (in words) ([2]; i.p.): very effective
Gastric Bleeding Index [2, 7]: 0.8
% Protection ([4]; 50 mg/kg p.o.): 77%
Mucosal Blood Loss, HCl + Aspirin ([4]; 50 mg/kg p.o.): 8.6 ± 3.7 µL
Mucosal Blood Loss, HCl ([4]; 50 mg/kg p.o.): 4.4 ± 2.4 µL
% Change from Control (mucosal blood loss) ([4]; 50 mg/kg p.o.): +95%
% Protection ([4]; 100 mg/kg p.o.): 100%
Mucosal Blood Loss, HCl + Aspirin ([4]; 100 mg/kg p.o.): 12.7 ± 3.5 µL
Mucosal Blood Loss, HCl ([4]; 100 mg/kg p.o.): 13.0 ± 1.5 µL
% Change from Control (mucosal blood loss) ([4]; 100 mg/kg p.o.): -2%
preventing aspirin-induced gastric bleeding (in words) ([4]; oral): effectiveness
